Results as given in patent publication US20040063662A1, “Selenophene anti-tumor agents” (priority 1996, published 2004).

How the values were obtained:
HOP-62 = test: NCI human tumor cell panel: HOP-62 (Non-Small Cell Lung Cancer); format: cell-based; conditions: HOP-62, Non-Small Cell Lung Cancer, read-out: Log10 TGI (converted)
SNB-75 = test: NCI human tumor cell panel: SNB-75 (CNS Cancer); format: cell-based; conditions: SNB-75, CNS Cancer
UO-31 = test: NCI human tumor cell panel: UO-31 (Renal Cancer); format: cell-based; conditions: UO-31, Renal Cancer
HCT-15 = test: NCI human tumor cell panel: HCT-15 (Colon Cancer); format: cell-based; conditions: HCT-15, Colon Cancer
ACHN = test: NCI human tumor cell panel: ACHN (Renal Cancer); format: cell-based; conditions: Renal Cancer
LOX IMVI = test: NCI human tumor cell panel: LOX IMVI (Melanoma); format: cell-based; conditions: Melanoma
MDA-MB-435 = test: NCI human tumor cell panel: MDA-MB-435 (Breast Cancer); format: cell-based; conditions: MDA-MB-435, Breast Cancer
HCT-116 = test: NCI human tumor cell panel: HCT-116 (Colon Cancer); format: cell-based; conditions: HCT-116, Colon Cancer
HOP-92 = test: NCI human tumor cell panel: HOP-92 (Non-Small Cell Lung Cancer)
MOLT-4 = test: NCI human tumor cell panel: MOLT-4 (Leukemia); format: cell-based; conditions: MOLT-4, Leukemia
M14 = test: NCI human tumor cell panel: M14 (Melanoma); format: cell-based; conditions: M14, Melanoma
UACC-257 = test: NCI human tumor cell panel: UACC-257 (Melanoma); format: cell-based; conditions: UACC-257, Melanoma
UACC-62 = test: NCI human tumor cell panel: UACC-62 (Melanoma); format: cell-based; conditions: UACC-62, Melanoma
U251 = test: NCI human tumor cell panel: U251 (CNS Cancer); format: cell-based; conditions: U-251, U251, CNS Cancer
SF-539 = test: NCI human tumor cell panel: SF-539 (CNS Cancer); format: cell-based; conditions: SF-539, CNS Cancer
MDA-N = test: NCI human tumor cell panel: MDA-N (Breast Cancer); format: cell-based; conditions: Breast Cancer
KM12 = test: NCI human tumor cell panel: KM12 (Colon Cancer); format: cell-based; conditions: KM12, Colon Cancer
OVCAR-3 = test: NCI human tumor cell panel: OVCAR-3 (Ovarian Cancer); format: cell-based; conditions: OVCAR-3, Ovarian Cancer
RPMI-8226 = test: NCI human tumor cell panel: RPMI-8226 (Leukemia); format: cell-based; conditions: RPMI-8226, Leukemia
HCC-2998 = test: NCI human tumor cell panel: HCC-2998 (Colon Cancer); format: cell-based; conditions: HCC-2998, Colon Cancer, read-out: Log10 TGI (converted)
OVCAR-8 = test: NCI human tumor cell panel: OVCAR-8 (Ovarian Cancer); format: cell-based; conditions: OVCAR-8, Ovarian Cancer
NCI-H322M = test: cells; format: cell-based; conditions: Homo sapiens, Non-Small Cell Lung Cancer
MCF7 = test: NCI human tumor cell panel: MCF7 (Breast Cancer); format: cell-based; conditions: MCF7, Breast Cancer
HT29 = test: NCI human tumor cell panel: HT29 (Colon Cancer); format: cell-based; conditions: HT-29, HT29, Colon Cancer
DU-145 = test: NCI human tumor cell panel: DU-145 (Prostate Cancer); format: cell-based; conditions: DU-145, Prostate Cancer
SW-620 = test: NCI human tumor cell panel: SW-620 (Colon Cancer); format: cell-based; conditions: SW-620, Colon Cancer
MALME-3M = test: NCI human tumor cell panel: MALME-3M (Melanoma); format: cell-based; conditions: MALME-3M, Melanoma
SF-295 = test: NCI human tumor cell panel: SF-295 (CNS Cancer); format: cell-based; conditions: SF-295, CNS Cancer
EKVX = test: NCI human tumor cell panel: EKVX (Non-Small Cell Lung Cancer); format: cell-based; conditions: Non-Small Cell Lung Cancer, read-out: Log10 GI50 (converted)
SR = test: NCI human tumor cell panel: SR (Leukemia); format: cell-based; conditions: Leukemia
NCI-H460 = test: NCI human tumor cell panel: NCI-H460 (Non-Small Cell Lung Cancer); format: cell-based; conditions: NCI-H460, Non-Small Cell Lung Cancer
[1] = read-out: Log10 GI50 (converted)
[2] = read-out: Log10 TGI (converted)

O=Cc1ccc(-c2ccc(-c3ccc(C=O)[se]3)s2)[se]1 [NSC 676630]
0.589 µM: GI50 (U251; [1])
0.129 µM: GI50 (NCI-H460; [1])
0.275 µM: GI50 (UACC-257; [1])
33.1 µM: GI50 (OVCAR-8; [1])
0.676 µM: IC (TGI) (UACC-257; [2]) | GI50 (MCF7; [1])
3.02 µM: GI50 (HCT-116; [1])
85.1 µM: IC (TGI) (HCC-2998)
0.724 µM: GI50 (OVCAR-3; [1])
67.6 µM: GI50 (SNB-75; [1])
0.263 µM: GI50 (UACC-62; [1])
> 100 µM: IC (TGI) (HOP-62) | IC (TGI) (SNB-75; [2]) | GI50 (UO-31; [1]) | IC (TGI) (UO-31; [2]) | GI50 (HCT-15; [1]) | IC (TGI) (HCT-15; [2]) | GI50 (ACHN; [1]) | IC (TGI) (ACHN; [2]) | GI50 (LOX IMVI; [1]) | IC (TGI) (LOX IMVI; [2]) | GI50 (MDA-MB-435; [1]) | IC (TGI) (MDA-MB-435; [2]) | IC (TGI) (HCT-116; [2]) | GI50 (HOP-92; HOP-92, read-out: Log10 GI50 (converted)) | IC (TGI) (HOP-92; HOP-92, read-out: Log10 TGI) | GI50 (MOLT-4; [1]) | IC (TGI) (MOLT-4; [2]) | GI50 (M14; [1]) | IC (TGI) (M14; [2]) | IC (TGI) (UACC-62; [2]) | IC (TGI) (U251; [2]) | GI50 (SF-539; [1]) | IC (TGI) (SF-539; [2]) | GI50 (MDA-N; [1]) | IC (TGI) (MDA-N; [2]) | GI50 (KM12; [1]) | IC (TGI) (KM12; [2]) | IC (TGI) (OVCAR-3; [2]) | GI50 (RPMI-8226; [1]) | IC (TGI) (RPMI-8226; read-out: Log10 TGI) | IC (TGI) (OVCAR-8; [2]) | GI50 (NCI-H322M; [1]) | IC (TGI) (NCI-H322M; [2]) | IC (TGI) (MCF7; [2]) | GI50 (HT29; [1]) | IC (TGI) (HT29; [2]) | GI50 (DU-145; [1]) | IC (TGI) (DU-145; [2]) | GI50 (SW-620; [1]) | IC (TGI) (SW-620; [2]) | GI50 (MALME-3M; [1]) | IC (TGI) (MALME-3M; [2]) | GI50 (SF-295; [1]) | IC (TGI) (SF-295; [2]) | GI50 (EKVX) | GI50 (SR; [1]) | IC (TGI) (SR; [2]) | IC (TGI) (NCI-H460; [2])
